# Activity calls are given as the source filed them. The rule behind the calls is not given here.
# Experiments:
# SGC-7901 = assay: Antiproliferative activity against human SGC-7901 cells assessed as inhibition of cell growth incubated for 72 hrs by MTT assay; type: functional, cell-based; conditions: SGC-7901, 72 h
# Huh-7 [1] = assay: cells; conditions: Homo sapiens, Huh-7, 72 h
# Description: Antiproliferative activity against human Huh-7 cells assessed as inhibition of cell growth incubated for 72 hrs by MTT assay
# MCF7 = assay: cells; conditions: Homo sapiens, MCF7, 72 h
# Description: Antiproliferative activity against human MCF7 cells assessed as inhibition of cell growth incubated for 72 hrs by MTT assay
# [2] = Antiproliferative activity against human MCF7/ADM cells assessed as inhibition of cell growth incubated for 72 hrs by MTT assay; type: functional, cell-based
# [3] = Cytotoxicity against human HUVEC cells incubated for 72 hrs by MTT assay; type: toxicity, cell-based
# Tubulin (Homo sapiens) [4] = target: T1, Tubulin (Homo sapiens) (UniProt P68371+Q9H4B7+P0DPH7+P68366+Q13509+Q71U36+P04350+Q3ZCM7+P07437+P68363+Q9BQE3+Q6PEY2+Q13885+Q9BVA1+Q9BUF5); assay: Disruption of microtubule network in human Huh-7 cells assessed as shortened microtubule wrap around the nucleus incubated for 24 hrs by DAPI staining based microscopic analysis; type: cell-based; conditions: dose 30-60 nM
# Tubulin (Homo sapiens) [5] = target: T1, Tubulin (Homo sapiens); assay: Inhibition of tubulin polymerization (unknown origin) at 5 uM by infinite F500 microplate reader analysis; type: protein-complex assay
# [6] = Toxicity in male BALB/c mouse assessed as liver damage at 15 mg/kg, ip administered every 2 days for 2 weeks by H and E staining based analysis; type: organism-based; conditions: in vivo, 336 h
# Huh-7 [7] = assay: Induction of apoptosis in human Huh-7 cells assessed as viable cells at 60 nM incubated for 48 hrs by Annexin-V/PI staining based flow cytometry analysis (reference value: 94.8%); type: functional; conditions: read-out: Activity
# Huh-7 [8] = assay: Antitumor activity against human Huh-7 cells xenografted in male BALB/c mouse at 15 mg/kg, ip administered every 2 days for 2 weeks; type: functional, organism-based
# Huh-7 [9] = assay: Induction of apoptosis in human Huh-7 cells assessed as late apoptotic cells at 90 nM incubated for 48 hrs by Annexin-V/PI staining based flow cytometry analysis (reference value: 4.06%); type: functional
# [10] = Toxicity in male BALB/c mouse assessed as body weight loss at 15 mg/kg, ip administered every 2 days for 2 weeks; type: organism-based; conditions: in vivo, 336 h
# Huh-7 [11] = assay: Induction of apoptosis in human Huh-7 cells assessed as necrotic cells at 60 nM incubated for 48 hrs by Annexin-V/PI staining based flow cytometry analysis (reference value: 0.60%); type: functional
# Huh-7 [12] = assay: Induction of apoptosis in human Huh-7 cells assessed as viable cells at 120 nM incubated for 48 hrs by Annexin-V/PI staining based flow cytometry analysis (reference value: 94.8%); type: functional; conditions: read-out: Activity
# Huh-7 [13] = assay: Induction of cell cycle arrest in human Huh-7 cells assessed as accumulation of cells at G2M phase at 60 nM incubated for 30 to 60 mins by RNase/PI staining based flow cytometry analysis (reference value: 8.38%); type: functional; conditions: time 30-60 min
# Huh-7 [14] = assay: Induction of apoptosis in human Huh-7 cells assessed as necrotic cells at 120 nM incubated for 48 hrs by Annexin-V/PI staining based flow cytometry analysis (reference value: 0.60%); type: functional
# Huh-7 [15] = assay: Induction of cell cycle arrest in human Huh-7 cells assessed as accumulation of cells at G0/G1 phase at 90 nM incubated for 30 to 60 mins by RNase/PI staining based flow cytometry analysis (reference value: 55.08%); type: functional; conditions: time 30-60 min
# Tubulin (Homo sapiens) [16] = target: T1, Tubulin (Homo sapiens); assay: Inhibition of tubulin polymerization (unknown origin) by infinite F500 microplate reader analysis; type: protein-complex assay; conditions: dose 3-5 µM
# Huh-7 [17] = assay: Induction of cell cycle arrest in human Huh-7 cells assessed as accumulation of cells at S-phase at 120 nM incubated for 30 to 60 mins by RNase/PI staining based flow cytometry analysis (reference value: 36.54%); type: functional; conditions: time 30-60 min
# Tubulin (Homo sapiens) [18] = target: T1, Tubulin (Homo sapiens); assay: Binding affinity to Tubulin (unknown origin) colchicine binding site assessed as reduction in colchicine-tubulin complex formation by Fluorescence based analysis; type: protein-complex assay; conditions: dose 2-6 µM
# Huh-7 [19] = assay: Induction of cell cycle arrest in human Huh-7 cells assessed as accumulation of cells at G0/G1 phase at 120 nM incubated for 30 to 60 mins by RNase/PI staining based flow cytometry analysis (reference value: 55.08%); type: functional; conditions: time 30-60 min
# Huh-7 [20] = assay: Induction of apoptosis in human Huh-7 cells assessed as early apoptotic cells at 120 nM incubated for 48 hrs by Annexin-V/PI staining based flow cytometry analysis (reference value: 0.56%); type: functional
# Huh-7 [21] = assay: Induction of apoptosis in human Huh-7 cells assessed as late apoptotic cells at 120 nM incubated for 48 hrs by Annexin-V/PI staining based flow cytometry analysis (reference value: 4.06%); type: functional
# Huh-7 [22] = assay: Induction of apoptosis in human Huh-7 cells assessed as necrotic cells at 90 nM incubated for 48 hrs by Annexin-V/PI staining based flow cytometry analysis (reference value: 0.60%); type: functional
# Tubulin (Homo sapiens) [23] = target: T1, Tubulin (Homo sapiens); assay: Inhibition of tubulin polymerization (unknown origin) at 3 to 5 uM by infinite F500 microplate reader analysis; type: protein-complex assay; conditions: dose 3-5 µM
# Huh-7 [24] = assay: Induction of apoptosis in human Huh-7 cells assessed as viable cells at 90 nM incubated for 48 hrs by Annexin-V/PI staining based flow cytometry analysis (reference value: 94.8%); type: functional; conditions: read-out: Activity
# Huh-7 [25] = assay: Induction of apoptosis in human Huh-7 cells assessed as early apoptotic cells at 90 nM incubated for 48 hrs by Annexin-V/PI staining based flow cytometry analysis (reference value: 0.56%); type: functional
# Huh-7 [26] = assay: Induction of cell cycle arrest in human Huh-7 cells assessed as accumulation of cells at G2M phase at 120 nM incubated for 30 to 60 mins by RNase/PI staining based flow cytometry analysis (reference value: 8.38%); type: functional; conditions: time 30-60 min
# Huh-7 [27] = assay: Induction of cell cycle arrest in human Huh-7 cells assessed as accumulation of cells at G2M phase at 90 nM incubated for 30 to 60 mins by RNase/PI staining based flow cytometry analysis (reference value: 8.38%); type: functional; conditions: time 30-60 min
# Huh-7 [28] = assay: Induction of cell cycle arrest in human Huh-7 cells assessed as accumulation of cells at S-phase at 90 nM incubated for 30 to 60 mins by RNase/PI staining based flow cytometry analysis (reference value: 36.54%); type: functional; conditions: time 30-60 min
# Huh-7 [29] = assay: Induction of apoptosis in human Huh-7 cells assessed as early apoptotic cells at 60 nM incubated for 48 hrs by Annexin-V/PI staining based flow cytometry analysis (reference value: 0.56%); type: functional
# Huh-7 [30] = assay: Induction of apoptosis in human Huh-7 cells assessed as late apoptotic cells at 60 nM incubated for 48 hrs by Annexin-V/PI staining based flow cytometry analysis (reference value: 4.06%); type: functional
# Huh-7 [31] = assay: Induction of cell cycle arrest in human Huh-7 cells assessed as accumulation of cells at G0/G1 phase at 60 nM incubated for 30 to 60 mins by RNase/PI staining based flow cytometry analysis (reference value: 55.08%); type: functional; conditions: time 30-60 min
# Huh-7 [32] = assay: Induction of cell cycle arrest in human Huh-7 cells assessed as accumulation of cells at S-phase at 60 nM incubated for 30 to 60 mins by RNase/PI staining based flow cytometry analysis (reference value: 36.54%); type: functional; conditions: time 30-60 min
smiles,measurement,setting,value
COc1cc(-c2ccnc3ccc(-c4ccc(Cl)cc4)cc23)cc(OC)c1OC,IC50,SGC-7901,12.1 µM
same,IC50,Huh-7 [1],4560 nM
same,IC50,MCF7,16.2 µM
COc1cc(-c2ccnc3ccc(-c4cccnc4)cc23)cc(OC)c1OC,IC50,SGC-7901,9.11 µM
same,IC50,Huh-7 [1],4580 nM
same,IC50,MCF7,22.1 µM
COc1ccc(-c2ccc3nccc(-c4cc(OC)c(OC)c(OC)c4)c3c2)cc1O,IC50,SGC-7901,25.3 µM
same,IC50,Huh-7 [1],120 nM
same,IC50,MCF7,3.62 µM
COc1cc(-c2ccnc3ccc(-c4ccc(O)cc4)cc23)cc(OC)c1OC,IC50,SGC-7901,1.91 µM
same,IC50,Huh-7 [1],320 nM
same,IC50,MCF7,> 100 µM
COc1cc(-c2ccnc3ccc(-c4ccncc4)cc23)cc(OC)c1OC,IC50,SGC-7901,> 100 µM
same,IC50,Huh-7 [1],> 100000 nM
same,IC50,MCF7,44.5 µM
COc1cc(-c2ccnc3ccc(-c4ccc(C#N)cc4)cc23)cc(OC)c1OC,IC50,SGC-7901,7.33 µM
same,IC50,Huh-7 [1],3410 nM
same,IC50,MCF7,> 100 µM
COc1cc(-c2ccnc3ccc(-c4cccc(C)c4)cc23)cc(OC)c1OC,IC50,SGC-7901,35 µM
same,IC50,Huh-7 [1],1320 nM
same,IC50,MCF7,17.9 µM
COc1cc(-c2ccnc3ccc(-c4ccc([N+](=O)[O-])cc4)cc23)cc(OC)c1OC,IC50,SGC-7901,20.3 µM
same,IC50,Huh-7 [1],8220 nM
same,IC50,MCF7,> 100 µM
COc1cc(-c2ccnc3ccc(-c4ccccc4C)cc23)cc(OC)c1OC,IC50,SGC-7901,> 100 µM
same,IC50,Huh-7 [1],39800 nM
same,IC50,MCF7,> 100 µM
COc1ccccc1-c1ccc2nccc(-c3cc(OC)c(OC)c(OC)c3)c2c1,IC50,SGC-7901,17.3 µM
same,IC50,Huh-7 [1],4690 nM
same,IC50,MCF7,> 100 µM
CCOc1ccc(-c2ccc3nccc(-c4cc(OC)c(OC)c(OC)c4)c3c2)cc1,IC50,SGC-7901,3.87 µM
same,IC50,Huh-7 [1],420 nM
same,IC50,MCF7,3.11 µM
COc1ccc(/C=C\c2cc(OC)c(OC)c(OC)c2)cc1O [COMBRETASTATIN A4],IC50,SGC-7901,0.12 µM
same,IC50,Huh-7 [1],79 nM
same,IC50,[2],2000 nM
same,IC50,MCF7,0.087 µM
same,IC50 at 72 h,[3],0.32 µM
same,Activity,Tubulin (Homo sapiens) [4],Dose-Dependent Effect
COc1cc(-c2ccnc3ccc(-c4ccc(F)cc4)cc23)cc(OC)c1OC,IC50,SGC-7901,10.5 µM
same,IC50,Huh-7 [1],5150 nM
same,IC50,MCF7,17.1 µM
CC(=O)O[C@H]1C(=O)[C@@]2(C)[C@H]([C@H](OC(=O)c3ccccc3)[C@]3(O)C[C@H](OC(=O)[C@H](O)[C@@H](NC(=O)c4ccccc4)c4ccccc4)C(C)=C1C3(C)C)[C@]1(OC(C)=O)CO[C@@H]1C[C@@H]2O,inhibition,Tubulin (Homo sapiens) [5],Active
COc1ccc(-c2ccc3nccc(-c4cc(OC)c(OC)c(OC)c4)c3c2)cc1,IC50,SGC-7901,1.38 µM
same,IC50,Huh-7 [1],40 nM
same,IC50,MCF7,0.33 µM
COc1cc(-c2ccnc3ccc(-c4ccccc4)cc23)cc(OC)c1OC,IC50,SGC-7901,7.92 µM
same,IC50,Huh-7 [1],1150 nM
same,IC50,MCF7,1.43 µM
COc1ccc(-c2ccc3nccc(-c4cc(OC)c(OC)c(OC)c4)c3c2)cc1OC,IC50,SGC-7901,0.88 µM
same,IC50,Huh-7 [1],80 nM
same,IC50,MCF7,0.96 µM
COc1cc(-c2ccnc3ccc(-c4ccc(C)cc4)cc23)cc(OC)c1OC,IC50,SGC-7901,0.6 µM
same,IC50,Huh-7 [1],1150 nM
same,IC50,MCF7,1.36 µM
COc1cc(-c2ccnc3ccc(-c4ccc(C)c(C)c4)cc23)cc(OC)c1OC,IC50,SGC-7901,2.15 µM
same,IC50,Huh-7 [1],3670 nM
same,IC50,MCF7,1.34 µM
COc1cc(-c2ccnc3ccc(-c4ccsc4)cc23)cc(OC)c1OC,IC50,SGC-7901,1.78 µM
same,IC50,Huh-7 [1],270 nM
same,IC50,MCF7,2.24 µM
COc1cccc(-c2ccc3nccc(-c4cc(OC)c(OC)c(OC)c4)c3c2)c1,IC50,SGC-7901,7.83 µM
same,IC50,Huh-7 [1],3360 nM
same,IC50,MCF7,17.5 µM
COc1cc(-c2ccnc3ccc(-c4ccc5ccccc5c4)cc23)cc(OC)c1OC,IC50,SGC-7901,1.36 µM
same,IC50,Huh-7 [1],4450 nM
same,IC50,MCF7,> 100 µM
COc1cc(-c2ccnc3ccc(-c4cccc5[nH]ccc45)cc23)cc(OC)c1OC,Activity,[6],Non-Toxic
same,viability at 0.06 µM,Huh-7 [7],91.1%
same,Activity,Huh-7 [8],Active
same,Activity,Huh-7 [9],20.1%
same,Activity,[10],Non-Toxic
same,Activity,Huh-7 [11],1.58%
same,viability at 0.12 µM,Huh-7 [12],63.5%
same,IC50,SGC-7901,0.18 µM
same,IC50,Huh-7 [1],30 nM
same,Activity,Huh-7 [13],9.39%
same,Activity,Huh-7 [14],2.45%
same,Activity,Huh-7 [15],47.21%
same,IC50,[2],520 nM
same,inhibition,Tubulin (Homo sapiens) [16],Dose-Dependent Effect
same,Activity,Huh-7 [17],42.03%
same,Activity,Tubulin (Homo sapiens) [18],Dose-Dependent Effect
same,Activity,Huh-7 [19],9.25%
same,Activity,Huh-7 [20],4.73%
same,Activity,Huh-7 [21],29.3%
same,Activity,Huh-7 [22],3.39%
same,inhibition,Tubulin (Homo sapiens) [23],Active
same,viability at 0.09 µM,Huh-7 [24],72.5%
same,Activity,Huh-7 [25],4.05%
same,IC50,MCF7,0.13 µM
same,Activity,Huh-7 [26],48.72%
same,IC50 at 72 h,[3],5.82 µM
same,Activity,Huh-7 [27],28.14%
same,Activity,Huh-7 [28],24.65%
same,Activity,Tubulin (Homo sapiens) [4],Dose-Dependent Effect
same,Activity,Huh-7 [29],1.05%
same,Activity,Huh-7 [30],6.27%
same,Activity,Huh-7 [31],53.2%
same,Activity,Huh-7 [32],37.41%

# Reference: ChEMBL document CHEMBL6127077, “Discovery and biological evaluation of 6-aryl-4-(3,4,5-trimethoxyphenyl)quinoline derivatives with promising antitumor activities as novel colchicine-binding site inhibitors” (Eur J Med Chem, 2024)
